Data as given in patent publication US10183908B2, “Compositions for the treatment of kidney and/or liver disease” (VECTUS BIOSYSTEMS LIMITED, priority 2015, dated 2019).

How the values were obtained:
[1] = test system: A10 embryonic vascular smooth muscle cells; assay: xCELLigence cell impedance in A10 vascular smooth muscle cells; format: cell-based; conditions: test compounds at 62.5, 125 or 250 μM; FIG. 8; negative response = direct vasodilator
Description: The xCELLigence SP system (Roche) was used to measure changes in cellular impedance (cell index) following the treatment of A10 embryonic vascular smooth muscle cells (ATCC, CRL-1476) with test compound. In this in vitro cell based experimental system a negative impedance profile correlates with blood pressure reduction in rats—a decrease in impedance is associated with vasodilatation and an increase in impedance is associated with vasoconstriction (Stallaert W, Dorn J F, van der Westhuizen E, Audet M & Bouvier M. Impedance responses reveal β-adrenergic signaling […] and allow classification of ligands with distinct signalling profiles PLoS ONE 2012; 7(1):e29420, doi:10.1371/journal.pone.0029420).
(§1) Briefly, 50 μl of cell culture medium (DMEM low glucose supplemented with 10% fetal bovine serum at 37° C.) was added to each well of an E-Plate 96 (Roche), and the background impedance in each well was measured. 50 μl of A-10 cell suspension (10,000 cells/well) was then added to the appropriate wells of the E-Plate 96. Cell index was monitored for each well of the E-Plate 96 in RTCA SP Station within the cell culture incubator. After overnight incubation for 16-20 hours at 5% CO2 and 95% humidity, 100 μl of test compound solution (test compounds were prepared in DMSO and diluted with cell culture medium to a final DMSO concentration of 0.25%) was added to the appropriate wells of the E-Plate 96 and cell index values were measured immediately following compound treatment every 20 seconds for 3 hours. Cell index value is baseline-corrected by subtracting the cell index of vehicle-treated cells and normalized by dividing by the cell index at the time point immediately before compound addition. Baseline normalized cell index as a function of time is plotted using Roche RTCA software.
Compounds may achieve reductions in blood pressure by interaction with vascular smooth muscle cells causing these cells to relax resulting in vasodilatation and a reduction in blood pressure. These are termed direct vasodilators.

SHR [2] = assay: Kidney fibrosis in SHR (Masson's trichrome); format: in vivo, rat; conditions: SHR on 2.2% salt diet, 500 pmol/kg/min, 4 weeks; for Fibrosis in the kidney compared to 18 week controls: FIG. 12, *p<0.05
Description: (§2) Fourteen week old SHR (on a 2.2% salt diet; Glen Forrest Stockfeeders) were randomly assigned to zero time control (14 week old rats), test compound treatment drinking solution (500 pmol/kg/min in deionised distilled water) or control drinking solution (5% ethanol in deionised distilled water). The rats assigned to zero time control group (14 week old rats) were anaesthetised and had their kidneys and liver harvested while rats assigned to control and test compound treatment were weighed twice weekly and had their drinking solution intake monitored to allow adjustment of the test compound concentration in the drinking solution to maintain a constant dose over the 4-week study period. Blood pressure was measured twice weekly by tail cuff plethysmography (PowerLab, ADInstruments, Castle Hill, NSW, Australia). After 4 weeks rats were anaesthetised (18 week old rats), and their kidneys and liver harvested. To quantitate tissue fibrosis and/or fat content, tissue slices ≤3 mm thick were fixed in 10% buffered formalin for 24 hours, processed and embedded in paraffin. Three micron transverse sections were stained using Masson's trichrome stain. A minimum of 20 random fields at magnification ×20 from transverse sections (5 at each of 2 levels) were digitized and the degree of fibrosis and fat content determined as a percent of field area of each digitized image using Image-Pro Plus V.7 (Media Cybernetics, Bethesda, Md., USA) then averaged to determine the level of fibrosis and/or fat content for each rat.

SHR [3] = assay: Blood pressure in SHR by tail cuff plethysmography; format: in vivo, rat; conditions: SHR on 2.2% salt diet; 500 pmol/kg/min in drinking solution; 4 weeks; systolic, FIG. 11
Description: Fourteen week old SHR (on a 2.2% salt diet; Glen Forrest Stockfeeders) were randomly assigned to zero time control (14 week old rats), test compound treatment drinking solution (500 pmol/kg/min in deionised distilled water) or control drinking solution (5% ethanol in deionised distilled water). The rats assigned to zero time control group (14 week old rats) were anaesthetised and had their kidneys and liver harvested while rats assigned to control and test compound treatment were weighed twice weekly and had their drinking solution intake monitored to allow adjustment of the test compound concentration in the drinking solution to maintain a constant dose over the 4-week study period. Blood pressure was measured twice weekly by tail cuff plethysmography (PowerLab, ADInstruments, Castle Hill, NSW, Australia). After 4 weeks rats were anaesthetised (18 week old rats), and their kidneys and liver harvested.

[4] = test system: Rat (NRK-52E) renal proximal tubule cells; assay: Rescue of renal proximal tubule cells from cisplatin cytotoxicity (WST-8/CCK-8); format: cell-based; conditions: test compound 30 μM; cisplatin 5 μg/ml; 24 or 48 hours; FIG. 10
Description: Rat (NRK-52E) renal proximal tubule cells grown in DMEM+10% FBS+1% NEAA+2 mM glutamine were placed in 96 well plates at 10,000 cells/well and incubated at 37° C. with 5% CO2 overnight. Test compounds at a concentration of 30 μM were incubated with human or rat renal proximal tubule cells for 2 hours at 37° C. and 5% CO2. Cis-diamminedichloroplatinum[…] (cisplatin) was then added at […] and each cell population was then incubated for 24 or 48 hours at 37° C. with 5% CO2. Test compounds were maintained at their original concentrations. To assay the cytotoxic effects of cisplatin on the rat renal proximal tubule cells a highly water-soluble tetrazolium salt, WST-8, which is reduced by dehydrogenases in cells to produce formazan, a water-soluble, yellow-coloured indicator dye was used following the manufacturer's instructions (specifically the Cell Count Kit-8 (CCK-8) assay from Sigma). Plate absorbance of the WST-8 (CCK-8) reagent was then measured at 450 nm using a Thermo Scientific Multiskan EX plate reader.

[5] = test system: bovine aortic endothelial cells; assay: xCELLigence cell impedance in bovine aortic endothelial cells; format: cell-based; conditions: test compounds at 62.5, 125 or 250 μM; FIG. 9; negative response = indirect vasodilator
Description: as §1
The xCELLigence SP system was also used to measure changes in cellular impedance following the treatment of bovine aortic endothelial cells (European Collection of Cell Cultures) with test compound. The method employed is the same for the A10 embryonic vascular smooth muscle cells described above but with the cell culture medium supplemented with 15% fetal bovine serum instead of 10%.
Compounds may interact with vascular endothelial cells causing the release of substances such as nitric oxide and endothelium-derived hyperpolarising factor, which in turn act on the vascular smooth muscle cells causing vasodilatation and lowering blood pressure. Such compounds are termed indirect vasodilators.

SHR [6] = assay: Hepatic fibrosis in SHR (Masson's trichrome); format: in vivo, rat; conditions: for Tissue architecture of portal tracts in Masson's tri-chrome stained liver sections: SHR treated rats vs control, FIG. 14; for Fibrosis in the liver compared to 18 week controls: SHR, 500 pmol/kg/min, 4 weeks, FIG. 13, *p<0.05, **p<0.025, ***p<0.01
Description: as §2

SHR [7] = assay: Hepatic fat content in SHR; format: in vivo, rat; conditions: SHR on 2.2% salt diet; 500 pmol/kg/min; 4 weeks; FIG. 15, *p<0.05, **p<0.025, ***p<0.01
Description: as §2

Compound	impedance response for A10 vascular smooth muscle cells [1]	Fibrosis in the kidney compared to 14 week controls (SHR [2]; FIG. 12, #p<0.05, reversal of established fibrosis)	Fibrosis in the kidney compared to 18 week controls (SHR [2])	Blood pressure (SHR [3])	Cisplatin induced cell death in renal proximal tubular cells [4]	impedance response for bovine aortic endothelial cells [5]	Tissue architecture of portal tracts in Masson's tri-chrome stained liver sections (SHR [6])	Fibrosis in the liver compared to 18 week controls (SHR [6])	Fat in the liver compared to 18 week controls (SHR [7])
NC(=O)CCc1cc(-c2cccnc2)ccc1-c1cccc(O)c1 [Compound P5, 3-(3′-Hydroxy-4-(pyridin-3-yl)-[1,1′-biphenyl]-2-yl)propanamide]	Negative impedance responses	decreased	decreased	reduced	decreased	–	–	–	–
NC(=O)CCc1cc(-c2ccsc2)ccc1-c1cccc(O)c1 [Compound P8, 3-(3′-Hydroxy-4-(thiophen-3-yl)-[1,1′biphenyl]-2-yl)propanamide]	Negative impedance responses	–	decreased	reduced	decreased	Negative impedance responses	normal tissue architecture has been restored	decreased	–
NC(=O)CCc1cc(-c2cn[nH]c2)ccc1-c1cccc(O)c1 [Compound P22, 3-(3′-Hydroxy-4-(1H-pyrazol-4-yl)-[1,1′-biphenyl]-2-yl)propanamide]	–	–	decreased	reduced	decreased	Negative impedance responses	–	decreased	reduced
NC(=O)CCc1cc(-c2cncnc2)ccc1-c1cccc(O)c1 [Compound P26, 3-(3′-Hydroxy-4-(pyrimidin-5-yl)-[1,1-biphenyl]-2-yl)propanamide]	–	–	decreased	–	decreased	Negative impedance responses	normal tissue architecture has been restored	decreased	reduced
Cc1nc(C)c(-c2ccc(-c3cccc(O)c3)c(CCC(N)=O)c2)s1 [Compound P40, 3-(4-(2,4-Dimethylthiazol-5-yl)-3′-hydroxy-[1,1′biphenyl]-2-yl)propanamide]	–	–	decreased	reduced	decreased	–	–	decreased	reduced
